The values below come from ChEMBL document CHEMBL4196103, “Bioactive Sesquiterpenoids from the Peeled Stems of Syringa pinnatifolia” (J Nat Prod, 2018).

The subject of series [1] is RAW264.7. The series is described as follows: Antiinflammatory activity against mouse RAW264.7 cells assessed as inhibition of LPS-induced NO production preincubated for 2 hrs followed by LPS stimulation measured after 24 hrs by Griess reagent based assay. Format: functional, cell-based. A general note: The Griess reaction detects nitrite, a stable product of nitric oxide.

For series [2], the system named is RAW264.7. Put plainly: Antiinflammatory activity against mouse RAW264.7 cells assessed as inhibition of LPS-induced IL-6 production preincubated for 1 hr followed by LPS stimulation measured after 24 hrs by ELISA. The format is functional, cell-based. For orientation: In an ELISA, binding on a coated surface is turned into a signal by an enzyme label.
Series [3] concerns RAW264.7. The series is described as follows: Antiinflammatory activity against mouse RAW264.7 cells assessed as inhibition of LPS-induced TNFalpha production preincubated for 1 hr followed by LPS stimulation measured after 24 hrs by ELISA. The format is functional, cell-based.
The species entered for the next series is Mus musculus. The series is described as follows: Protection against hypoxia-induced injury in […] cells assessed as increase in cell viability at 40 uM incubated for 20 hrs under hypoxia condition by CCK-8 assay. Format: functional, cell-based. A general note: Tetrazolium dyes change colour on reduction, which living cells bring about.
The subject of series [4] is RAW264.7. The series is described as follows: Antiinflammatory activity against mouse RAW264.7 cells assessed as inhibition of LPS-induced NO production at 80 uM preincubated for 2 hrs followed by LPS stimulation measured after 24 hrs by Griess reagent based assay relative to control. The format is functional.
Series [5] can be described thus: Cytotoxicity against […] cells assessed as decrease in cell viability at 20 uM incubated for 24 hrs by CCK-8 assay. The format is cell-based.

A word on the pIC50: it is the IC50 on a negative log10 scale, so that one unit is a factor of ten. As a reminder, the inhibition is the share of the control response that was lost under treatment.

pIC50: −log10 of the molar value. Active and inactive are the calls of the source. No cut-off for these calls is given here. Where only a bound is given, the exact number is not on record here.

Take `C/C1=C\CC(C)(C)/C=C/C(=O)/C(C)=C/CC1` [ZERUMBONE]: the pIC50 with RAW264.7 [1] is 4.87. Also, the inhibition result in the series with RAW264.7 [2] and in the series on RAW264.7 [3] was “Dose-dependent effect” in each case. The outcome in the series listed under Mus musculus was Active.
Regarding `CO[C@H]1CC/C(C)=C/CC(C)(C)/C=C/C(=O)[C@@H]1CO`, in the series with RAW264.7 [1], the pIC50 was 4.38. Further, the inhibition entry in the series on RAW264.7 [2] and in the series with RAW264.7 [3] was “Dose-dependent effect” throughout.
For the molecule `C/C1=C\CC(C)(C)/C=C/C(=O)[C@@H](CO)CCC1`, in the series with RAW264.7 [1], the pIC50 is 4.15. In addition, the inhibition result in the series with RAW264.7 [2] and in the series with RAW264.7 [3] was “Dose-dependent effect” each time.
For `CO[C@H]1CC[C@]2(C)O[C@H]2CC(C)(C)/C=C/C(=O)[C@H]1C`, the inhibition at 80 µM in the series on RAW264.7 [4] was < 50%.
For `C/C1=C\CC(C)(C)/C=C/C(=O)[C@H](CO)CCC1`, the pIC50 in the series with RAW264.7 [1] is 4.48. In addition, the inhibition entry in the series on RAW264.7 [2] and with RAW264.7 [3] was “Dose-dependent effect” in each case.
Take `CO[C@@H]1CC[C@@]2(C)O[C@@H]2CC(C)(C)/C=C/C(=O)[C@@H]1C`: the inhibition at 80 µM in the series on RAW264.7 [4] is < 50%.
Take `CO[C@@H]1CC/C(C)=C/CC(C)(C)/C=C/C(=O)[C@H]1CO`: in the series on RAW264.7 [1], the pIC50 is 4.57. Besides, the inhibition result with RAW264.7 [2] and with RAW264.7 [3] was “Dose-dependent effect” throughout. In the series listed under Mus musculus, the outcome was Active.
Take `COc1ccc2c(c1)c(CC(=O)O)c(C)n2C(=O)c1ccc(Cl)cc1` [INDOMETHACIN]: the pIC50 in the series with RAW264.7 [1] is 4.47.
With `C/C1=C\CC(C)(C)/C=C/C(=O)[C@@H](C)[C@@H](O)CC1`, the inhibition at 80 µM in the series on RAW264.7 [4] is < 50%.
Consider `C/C1=C\CC(C)(C)/C=C/C(=O)[C@H](C)[C@H](O)CC1`, for which, in the series with RAW264.7 [4], the inhibition at 80 µM was < 50%.
Turning to `C/C1=C\C[C@H](O)[C@]2(C)O[C@H]2CC(C)(C)/C=C/C1=O`, the inhibition at 80 µM in the series on RAW264.7 [4] is < 50%.
Turning to `CCC(=O)/C=C/C(C)(C)C/C=C(\C)CCC=O`, the inhibition at 80 µM in the series on RAW264.7 [4] was < 50%.
In the case of `CC1(C)C/C=C(/C=O)CC[C@H]2[C@H]1CC(=O)[C@]2(C)O`, the inhibition at 80 µM with RAW264.7 [4] was < 50%.
Turning to `C=C1CC[C@H](O)[C@H](C)C(=O)C[C@@H]2[C@@H]1CC2(C)C`, the inhibition at 80 µM with RAW264.7 [4] is < 50%.
Consider `C=C1C(=O)C/C=C(\C)[C@@H](O)C[C@@H]2[C@@H]1CC2(C)C`, for which the inhibition at 80 µM in the series on RAW264.7 [4] is < 50%.
`CC1(C)C/C=C(/C=O)CC[C@@H]2[C@@H]1CC(=O)[C@@]2(C)O`: in the series on RAW264.7 [4], the inhibition at 80 µM was < 50%.
As for `C/C1=C\CC(C)(C)/C=C/C(=O)/C(CO)=C/CC1`, the Activity result in series [5] was “Toxic”.
Turning to `C/C1=C\CC(C)(C)/C=C/[C@H](O)[C@H](C)CCC1`, the inhibition at 80 µM with RAW264.7 [4] is < 50%.
On to `COC1CC/C(C)=C/CC(C)(C)/C=C/C(=O)C1CO` (centres undefined), for which the pIC50 in the series with RAW264.7 [1] was 4.74. Also, the inhibition entry in the series with RAW264.7 [2] and with RAW264.7 [3] was “Dose-dependent effect” throughout. Also, in the series filed under Mus musculus, the result was Active.
On to `C/C1=C\CC[C@@]2(C)O[C@@H]2[C@@H](O)C(C)(C)/C=C/C1=O`, for which the inhibition at 80 µM with RAW264.7 [4] is < 50%.
Consider `C/C1=C\CC[C@@]2(C)O[C@@H]2CC(C)(C)/C=C/C1=O` [ZERUMBONE EPOXIDE], for which the pIC50 with RAW264.7 [1] is 4.65. The inhibition entry in the series with RAW264.7 [2] and in the series with RAW264.7 [3] was “Dose-dependent effect” throughout.
Turning to `C=C1CC[C@H]2O[C@]2(C)[C@@H](O)C[C@@H]2[C@@H]1CC2(C)C` [SUBEROSOL A], in the series on RAW264.7 [4], the inhibition at 80 µM is < 50%.
